Measured values published in the NIST ThermoML archive (doi:10.1021/acs.jced.8b00524).

Experiment: xn = mol fraction of the nth substance listed
Details: 100 kPa, Liquid; for viscosity: Concentric cylinders viscometry; for mass density: Vibrating tube method

CCCCCCCO [heptan-1-ol] + CCCCOC(C)=O
Details | mass density [kg/m3] | viscosity [mPa·s]
293.15 K, x2 = 0 | 822.2 | 7.03
293.15 K, x2 = 0.0819 | 826.3 | 6.17
293.15 K, x2 = 0.1604 | 830.3 | 5.46
293.15 K, x2 = 0.2399 | 834.5 | 4.81
293.15 K, x2 = 0.3497 | 840.6 | 4.03
293.15 K, x2 = 0.4399 | 845.7 | 3.47
293.15 K, x2 = 0.5743 | 853.6 | 2.72
293.15 K, x2 = 0.6496 | 858.2 | 2.34
293.15 K, x2 = 0.7391 | 863.8 | 1.92
293.15 K, x2 = 0.8491 | 870.9 | 1.41
293.15 K, x2 = 0.9385 | 876.8 | 1.01
298.15 K, x2 = 0 | 818.7 | 5.92
298.15 K, x2 = 0.0819 | 822.6 | 5.17
298.15 K, x2 = 0.1604 | 826.4 | 4.56
298.15 K, x2 = 0.2399 | 830.5 | 3.99
298.15 K, x2 = 0.3497 | 836.3 | 3.33
298.15 K, x2 = 0.4399 | 841.3 | 2.86
298.15 K, x2 = 0.5743 | 849 | 2.25
298.15 K, x2 = 0.6496 | 853.5 | 1.95
298.15 K, x2 = 0.7391 | 859 | 1.61
298.15 K, x2 = 0.8491 | 865.9 | 1.22
298.15 K, x2 = 0.9385 | 871.8 | 0.9
303.15 K, x2 = 0 | 815.2 | 5.03
303.15 K, x2 = 0.0819 | 818.8 | 4.37
303.15 K, x2 = 0.1604 | 822.5 | 3.84
303.15 K, x2 = 0.2399 | 826.3 | 3.35
303.15 K, x2 = 0.3497 | 831.9 | 2.78
303.15 K, x2 = 0.4399 | 836.7 | 2.4
303.15 K, x2 = 0.5743 | 844.2 | 1.89
303.15 K, x2 = 0.6496 | 848.6 | 1.65
303.15 K, x2 = 0.7391 | 853.9 | 1.38
303.15 K, x2 = 0.8491 | 860.8 | 1.06
303.15 K, x2 = 0.9385 | 866.6 | 0.81
308.15 K, x2 = 0 | 811.6 | 4.3
308.15 K, x2 = 0.0819 | 815 | 3.73
308.15 K, x2 = 0.1604 | 818.4 | 3.26
308.15 K, x2 = 0.2399 | 822.1 | 2.84
308.15 K, x2 = 0.3497 | 827.4 | 2.36
308.15 K, x2 = 0.4399 | 832.1 | 2.03
308.15 K, x2 = 0.5743 | 839.3 | 1.61
308.15 K, x2 = 0.6496 | 843.6 | 1.41
308.15 K, x2 = 0.7391 | 848.9 | 1.19
308.15 K, x2 = 0.8491 | 855.7 | 0.94
308.15 K, x2 = 0.9385 | 861.4 | 0.73
313.15 K, x2 = 0 | 808 | 3.71
313.15 K, x2 = 0.0819 | 811 | 3.19
313.15 K, x2 = 0.1604 | 814.2 | 2.78
313.15 K, x2 = 0.2399 | 817.6 | 2.42
313.15 K, x2 = 0.3497 | 822.7 | 2.01
313.15 K, x2 = 0.4399 | 827.1 | 1.74
313.15 K, x2 = 0.5743 | 834.1 | 1.4
313.15 K, x2 = 0.6496 | 838.3 | 1.23
313.15 K, x2 = 0.7391 | 843.5 | 1.06
313.15 K, x2 = 0.8491 | 850.3 | 0.85
313.15 K, x2 = 0.9385 | 856 | 0.67
318.15 K, x2 = 0 | 804.4 | 3.21
318.15 K, x2 = 0.0819 | 807.2 | 2.75
318.15 K, x2 = 0.1604 | 810.1 | 2.4
318.15 K, x2 = 0.2399 | 813.3 | 2.08
318.15 K, x2 = 0.3497 | 818.1 | 1.73
318.15 K, x2 = 0.4399 | 822.3 | 1.49
318.15 K, x2 = 0.5743 | 829.2 | 1.22
318.15 K, x2 = 0.6496 | 833.3 | 1.09
318.15 K, x2 = 0.7391 | 838.4 | 0.94
318.15 K, x2 = 0.8491 | 845.1 | 0.77
318.15 K, x2 = 0.9385 | 850.9 | 0.62
323.15 K, x2 = 0 | 800.7 | 2.79
323.15 K, x2 = 0.0819 | 803.2 | 2.4
323.15 K, x2 = 0.1604 | 806 | 2.09
323.15 K, x2 = 0.2399 | 808.9 | 1.81
323.15 K, x2 = 0.3497 | 813.5 | 1.5
323.15 K, x2 = 0.4399 | 817.6 | 1.3
323.15 K, x2 = 0.5743 | 824.2 | 1.06
323.15 K, x2 = 0.6496 | 828.2 | 0.95
323.15 K, x2 = 0.7391 | 833.2 | 0.83
323.15 K, x2 = 0.8491 | 839.9 | 0.7
323.15 K, x2 = 0.9385 | 845.7 | 0.58
